Assay results published in BindingDB's records for doi:10.1111/cbdd.12724 (Hamdard University (Jamia Hamdard), 2016).

Target: Glycogen synthase kinase-3 beta (Homo sapiens, UniProt P49841)
Experiment: Kinase-Glo Assay
Details: 30 °C
Description: The final DMSO concentration in the reaction mixture was <1%. After incubation at 30 °C for 30 min, the enzymatic reaction was quenched with 40 μL of Kinase-Glo reagent. Luminescence was recorded after 10 min using Infinite F200® PRO multimode reader (Tecan Group Ltd., Männedorf, Switzerland). The activity is proportional to the difference of the total and consumed ATP.

Chain of Glycogen synthase kinase-3 beta (P49841 whole entry): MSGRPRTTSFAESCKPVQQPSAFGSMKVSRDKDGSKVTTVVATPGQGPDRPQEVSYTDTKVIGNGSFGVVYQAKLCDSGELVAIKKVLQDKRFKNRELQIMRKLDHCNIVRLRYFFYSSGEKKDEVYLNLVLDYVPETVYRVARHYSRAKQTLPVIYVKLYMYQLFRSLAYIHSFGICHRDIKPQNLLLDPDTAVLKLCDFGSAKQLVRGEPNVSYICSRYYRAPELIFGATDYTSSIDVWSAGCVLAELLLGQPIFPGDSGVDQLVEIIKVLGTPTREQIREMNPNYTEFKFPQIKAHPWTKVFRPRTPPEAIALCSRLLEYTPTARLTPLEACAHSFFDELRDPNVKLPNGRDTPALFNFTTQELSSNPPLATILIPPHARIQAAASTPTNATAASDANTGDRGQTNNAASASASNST

SMILES	IC50
O=c1oc2cccnc2n1Cc1cn(-c2ccccc2Br)nn1 [3-((1-(2-bromophenyl)-1H-1,2,3-triazol-4-yl)methyl)oxazolo[4,5-b]pyridin-2(3H)-one (4f)]	0.31 µM
O=c1oc2cccnc2n1Cc1cn(-c2cccnc2Cl)nn1 [3-((1-(2-chloropyridin-3-yl)-1H-1,2,3-triazol-4-yl)methyl)oxazolo[4,5-b]pyridin-2(3H)-one (4t)]	11 µM
O=c1oc2cccnc2n1Cc1cn(-c2ccccc2F)nn1 [3-((1-(2-fluorophenyl)-1H-1,2,3-triazol-4-yl)methyl)oxazolo[4,5-b]pyridin-2(3H)-one (4i)]	0.37 µM
COc1ccccc1-n1cc(Cn2c(=O)oc3cccnc32)nn1 [3-((1-(2-methoxyphenyl)-1H-1,2,3-triazol-4-yl)methyl)oxazolo[4,5-b]pyridin-2(3H)-one  (4q)]	0.74 µM
O=c1oc2cccnc2n1Cc1cn(-c2ccc(Cl)c(Cl)c2)nn1 [3-((1-(3,4-dichlorophenyl)-1H-1,2,3-triazol-4-yl)methyl)oxazolo[4,5-b]pyridin-2(3H)-one (4s)]	12.6 µM
O=c1oc2cccnc2n1Cc1cn(-c2cccc(Cl)c2)nn1 [3-((1-(3-chlorophenyl)-1H-1,2,3-triazol-4-yl)methyl)oxazolo[4,5-b]pyridin-2(3H)-one (4k)]	28.4 µM
O=c1oc2cccnc2n1Cc1cn(-c2cccc([N+](=O)[O-])c2)nn1 [3-((1-(3-nitrophenyl)-1H-1,2,3-triazol-4-yl)methyl)oxazolo[4,5-b]pyridin-2(3H)-one (4o)]	15.6 µM
O=c1oc2cccnc2n1Cc1cn(-c2ccc(Cl)cc2)nn1 [3-((1-(4-chlorophenyl)-1H-1,2,3-triazol-4-yl)methyl)oxazolo[4,5-b]pyridin-2(3H)-one (4c)]	5.73 µM
CCOc1ccc(-n2cc(Cn3c(=O)oc4cccnc43)nn2)cc1 [3-((1-(4-ethoxyphenyl)-1H-1,2,3-triazol-4-yl)methyl)oxazolo[4,5-b]pyridin-2(3H)-one (4u)]	37.3 µM
O=c1oc2cccnc2n1Cc1cn(-c2ccc(F)cc2)nn1 [3-((1-(4-fluorophenyl)-1H-1,2,3-triazol-4-yl)methyl)oxazolo[4,5-b]pyridin-2(3H)-one (4e)]	2.49 µM
COc1ccc(-n2cc(Cn3c(=O)oc4cccnc43)nn2)cc1 [3-((1-(4-methoxyphenyl)-1H-1,2,3-triazol-4-yl)methyl)oxazolo[4,5-b]pyridin-2(3H)-one (4l)]	8.45 µM
O=c1oc2cccnc2n1Cc1cn(-c2cccnc2)nn1 [3-((1-(pyridin-3-yl)-1H-1,2,3-triazol-4-yl)methyl)oxazolo[4,5-b]pyridin-2(3H)-one (4d)]	0.23 µM
Cc1ccccc1-n1cc(Cn2c(=O)oc3cccnc32)nn1 [3-((1-o-tolyl-1H-1,2,3-triazol-4-yl)methyl)oxazolo[4,5-b]pyridin-2(3H)-one (4n)]	0.65 µM

Other lines, results leading:

IC50	SMILES
10.8 µM	O=c1oc2cccnc2n1Cc1cn(-c2ccc(Cl)cc2Cl)nn1 [3-((1-(2,4-dichlorophenyl)-1H-1,2,3-triazol-4-yl)methyl)oxazolo[4,5-b]pyridin-2(3H)-one (4r)]
0.19 µM	O=c1oc2cccnc2n1Cc1cn(-c2ccccc2Cl)nn1 [3-((1-(2-chlorophenyl)-1H-1,2,3-triazol-4-yl)methyl)oxazolo[4,5-b]pyridin-2(3H)-one (4g)]
40.1 µM	Cc1ccc(-n2cc(Cn3c(=O)oc4cccnc43)nn2)cc1C [3-((1-(3,4-dimethylphenyl)-1H-1,2,3-triazol-4-yl)methyl)oxazolo[4,5-b]pyridin-3H)one (4j)]
8.64 µM	O=c1oc2cccnc2n1Cc1cn(-c2ccc(Br)cc2)nn1 [3-((1-(4-bromophenyl)-1H-1,2,3-triazol-4-yl)methyl)oxazolo[4,5-b]pyridin-2(3H)-one (4b)]
12.7 µM	CCc1ccc(-n2cc(Cn3c(=O)oc4cccnc43)nn2)cc1 [3-((1-(4-ethylphenyl)-1H-1,2,3-triazol-4-yl)methyl)oxazolo[4,5-b]pyridin-2(3H)-one (4h)]
17.1 µM	O=c1oc2cccnc2n1Cc1cn(-c2ccc([N+](=O)[O-])cc2)nn1 [3-((1-(4-nitrophenyl)-1H-1,2,3-triazol-4-yl)methyl)oxazolo[4,5-b]pyridin-2(3H)-one (4p)]
23.5 µM	CC(C)(C)c1ccc(-n2cc(Cn3c(=O)oc4cccnc43)nn2)cc1 [3-((1-(4-tert-butylphenyl)-1H-1,2,3-triazol-4-yl)methyl)oxazolo[4,5-b]pyridin-2(3H)-one (4m)]
10.1 µM	O=c1oc2cccnc2n1Cc1cn(-c2ccccc2)nn1 [3-((1-phenyl-1H-1,2,3-triazol-4-yl)methyl)oxazolo[4,5-b]pyridin-2(3H)-one (4a)]
